This note sets out measurements from patent US7906541B2, “Process to prepare new substituted 1H-benzo[d]imidazol-2(3H)-ones, new intermediates and their use as BACE 1 inhibitors” (Universite Paul Cezanne-Aix Marseille III, priority 2008, dated 2011).

In general, melting point refers to the temperature, or range, at which the solid turns liquid.

Turning to `CS/C=C(/C)n1c(=O)n(C)c2ccccc21` [Example 1, 1-methyl-3-[(1Z)-1-(methylsulfanyl)prop-1-en-2-yl]-1,3-dihydro-2H-benzimidazol-2-one], the melting point was 66 °C (dec.).
In the case of `CS/C=C(/C)n1c(=O)n(Cc2ccccc2)c2ccccc21` [Example 2, 1-benzyl-3-[(1Z)-1-(methylsulfanyl)prop-1-en-2-yl]-1,3-dihydro-2H-benzimidazol-2-one], the melting point is 227 °C (dec.).
Under `CCn1c(=O)n(/C(C)=C\SC)c2ccccc21` [Example 5, 1-ethyl-3-[(1Z)-1-(methylsulfanyl)prop-1-en-2-yl]-1,3-dihydro-2H-benzimidazol-2-one] stands 74 °C; under `CS/C=C(/C)n1c(=O)n(Cc2cc(C(F)(F)F)cc(C(F)(F)F)c2)c2ccccc21` [Example 6, 1-[3,5-bis(trifluoromethyl)benzyl]-3-[(1Z)-1-(methylsulfanyl)prop-1-en-2-yl]-1,3-dihydro-2H-benzimidazol-2-one], 148 °C; under `CS/C=C(/C)n1c(=O)n(C)c2ccc(C(F)(F)F)cc21` [Example 9, 1-methyl-3-[(1Z)-1-(methylsulfanyl)prop-1-en-2-yl]-5-(trifluoromethyl)-1,3-dihydro-2H-benzimidazol-2-one], 194 °C.
The same measure for `CS/C=C(/C)n1c(=O)n(C)c2cc(F)ccc21` [Example 10, 5-fluoro-3-methyl-1-[(1Z)-1-(methylsulfanyl)prop-1-en-2-yl]-1,3-dihydro-2H-benzimidazol-2-one]: 110 °C.
Molecule `O=c1[nH]c2ccccc2n1Cc1ccccc1` [Example 11, 1-benzyl-1,3-dihydro-2H-benzimidazol-2-one] displayed a melting point of 194 °C.
